Assays:
[1] = Exposure of powder sample at room temperature to air (hygroscopicity, storage stability); format: physicochemical; conditions: for State of powder after exposure to air: exposed to air
Text: The L-arginine butyrate prepared using ethanol as the sole solvent was a white to off-white powder.
The L-lysine butyrate prepared using ethanol as the sole solvent was a light, pale yellow to yellow powder.

[2] = Study to assess nootropic and related properties after oral administration; format: in vivo, human
Procedure: In another experiment, L-lysine butyrate in a dose range of 500 mg to 5,000 mg was administered as an aqueous solution to six individuals aged between 22 and 55 years, comprising two women and four men. […] The observed effects were dose-dependent, with larger doses of L-lysine butyrate providing greater effects and longer duration, lasting up to four hours.
In another experiment, L-lysine butyrate in a dose of 2 g, and on a separate occasion 5 g, was administered in encapsulated form, to 2 individuals. A further individual was administered L-lysine butyrate in a dose of 2 g in encapsuled form.

[3] = seven (7) days, room temperature

Substance	Hygroscopicity [1]	State of powder after exposure to air ([1]; 24 hours, room temperature)	State of powder after exposure to air [1, 3]	Time to reported effects after administration ([2]; 500 mg to 5,000 mg as aqueous solution, six individuals)	Effects reported by participants ([2]; 500 mg to 5,000 mg as aqueous solution, six individuals, dose-dependent)	Duration of effects ([2]; 500 mg to 5,000 mg as aqueous solution, larger doses longer duration)	Analgesic effect ([2]; oral administration, 2 g encapsulated, two of the individuals)	Mental effects ([2]; single oral administration of 2 g, encapsulated form)	Mental effects (undesirable) ([2]; single oral administration of 5 g, encapsulated form)	Calming effect in a baby ([2]; small dosage of 25 mg or 50 mg)	Storage stability of the solid ([1]; room temperature)	State of powder after exposure to air ([1]; thirty (30) days, room temperature)
L-arginine butyrate [reference compound]	quite hygroscopic	formed hard, rock-like clumps	significantly hydrated into, large solid masses	–	–	–	–	–	–	–	–	–
L-lysine butyrate	not hygroscopic	remained a fine, free-flowing yellow powder	remained a fine, free-flowing powder with no color change	thirty	more relaxed, less tired, more sociable, and able to concentrate on tasks more effectively	up to four	eliminating minor-to-moderate pain and discomfort	pleasant mental effects	undesirable mental effects	effective to calm a baby	stable to storage at room temperature	remained a fine, free-flowing powder
